Legend:
Enkephalinase = target: T1, Enkephalinase (Rattus norvegicus, UniProt P07861); experiment: Enkephalinase inhibition, fluorometric, substrate dansyl-D-AlaGly(p-nitro)PheGly; assay type: biochemical; conditions: 50 mM HEPES, pH 7.4, 25° C., 12 μM substrate; read-out: ENK, Ki
T1 construct: Enkephalinase is partially purified from rat kidney; from tissue; host or cells: rat kidney (microvilli fraction; Triton X-100 extract or proteolytic solubilisation, then Mono Q FPLC)
T1 sequence (P07861 1-750): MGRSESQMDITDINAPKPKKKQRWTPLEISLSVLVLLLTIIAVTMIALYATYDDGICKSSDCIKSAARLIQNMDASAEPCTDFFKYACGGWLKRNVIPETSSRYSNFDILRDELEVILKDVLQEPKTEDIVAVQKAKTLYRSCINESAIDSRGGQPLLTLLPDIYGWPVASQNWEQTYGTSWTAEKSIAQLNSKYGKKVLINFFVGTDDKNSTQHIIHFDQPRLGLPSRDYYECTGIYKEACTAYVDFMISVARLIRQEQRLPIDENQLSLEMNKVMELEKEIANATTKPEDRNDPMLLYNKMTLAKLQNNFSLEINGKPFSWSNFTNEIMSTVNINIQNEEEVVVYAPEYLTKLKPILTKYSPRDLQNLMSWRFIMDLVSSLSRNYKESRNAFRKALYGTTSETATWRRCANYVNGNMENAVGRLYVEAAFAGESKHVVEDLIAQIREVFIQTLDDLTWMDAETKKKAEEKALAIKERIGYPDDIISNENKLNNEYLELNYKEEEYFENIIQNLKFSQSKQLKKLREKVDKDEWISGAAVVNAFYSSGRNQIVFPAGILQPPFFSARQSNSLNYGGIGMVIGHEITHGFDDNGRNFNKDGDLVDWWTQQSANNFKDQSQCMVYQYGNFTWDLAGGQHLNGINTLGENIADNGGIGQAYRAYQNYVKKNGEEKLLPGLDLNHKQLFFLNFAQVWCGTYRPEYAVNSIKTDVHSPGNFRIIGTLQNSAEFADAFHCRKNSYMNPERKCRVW
Description: Enkephalinase is partially purified from rat kidney. The enzyme is extracted from the microvilli fraction by using Triton X-100 according to the method of Malfroy and Schwartz [J. Biol. Chem. 259, 14365-14370 (1984)] or by using a proteolytic treatment according to the method of Almenoff and Orlowski [Biochem. 22 590-599 (1983)]. The enzyme is further purified by anio exchange chromatography (Mono Q™ column, Pharmacia) using a Pharmacia FPLC system. The enzyme activity may be measured by the fluorometric methods of Florentin et al. [Anal. Biochem. 141, 62-69 (1984 ) ] or of Almenoff and Orlowski [J. Neurochemistry 42,151-157 (1984)]. […] The substrate (and inhibitor) is added from a concentrated stock solution in DMSO (up to 0.1 mL DMSO final volume). The enzyme in a small volume (approximately 0.1 μg of FPLC purified protein) is added to initiate the reaction and the rate of fluorecense increase is recorded continuously using a fluorometer (excitation at 339 nm, emission at 562 nm).
(§1) The results of the analysis of enzymatic activity as described in Table 1 indicate that the compounds of the present invention are inhibitors of enkephalinase as well as inhibitors of ACE.

ACE = ACE (Homo sapiens, UniProt P12821); experiment: ACE inhibition, spectrophotometric substrate; assay type: biochemical
Chain of ACE (P12821 30-1306, species assumed): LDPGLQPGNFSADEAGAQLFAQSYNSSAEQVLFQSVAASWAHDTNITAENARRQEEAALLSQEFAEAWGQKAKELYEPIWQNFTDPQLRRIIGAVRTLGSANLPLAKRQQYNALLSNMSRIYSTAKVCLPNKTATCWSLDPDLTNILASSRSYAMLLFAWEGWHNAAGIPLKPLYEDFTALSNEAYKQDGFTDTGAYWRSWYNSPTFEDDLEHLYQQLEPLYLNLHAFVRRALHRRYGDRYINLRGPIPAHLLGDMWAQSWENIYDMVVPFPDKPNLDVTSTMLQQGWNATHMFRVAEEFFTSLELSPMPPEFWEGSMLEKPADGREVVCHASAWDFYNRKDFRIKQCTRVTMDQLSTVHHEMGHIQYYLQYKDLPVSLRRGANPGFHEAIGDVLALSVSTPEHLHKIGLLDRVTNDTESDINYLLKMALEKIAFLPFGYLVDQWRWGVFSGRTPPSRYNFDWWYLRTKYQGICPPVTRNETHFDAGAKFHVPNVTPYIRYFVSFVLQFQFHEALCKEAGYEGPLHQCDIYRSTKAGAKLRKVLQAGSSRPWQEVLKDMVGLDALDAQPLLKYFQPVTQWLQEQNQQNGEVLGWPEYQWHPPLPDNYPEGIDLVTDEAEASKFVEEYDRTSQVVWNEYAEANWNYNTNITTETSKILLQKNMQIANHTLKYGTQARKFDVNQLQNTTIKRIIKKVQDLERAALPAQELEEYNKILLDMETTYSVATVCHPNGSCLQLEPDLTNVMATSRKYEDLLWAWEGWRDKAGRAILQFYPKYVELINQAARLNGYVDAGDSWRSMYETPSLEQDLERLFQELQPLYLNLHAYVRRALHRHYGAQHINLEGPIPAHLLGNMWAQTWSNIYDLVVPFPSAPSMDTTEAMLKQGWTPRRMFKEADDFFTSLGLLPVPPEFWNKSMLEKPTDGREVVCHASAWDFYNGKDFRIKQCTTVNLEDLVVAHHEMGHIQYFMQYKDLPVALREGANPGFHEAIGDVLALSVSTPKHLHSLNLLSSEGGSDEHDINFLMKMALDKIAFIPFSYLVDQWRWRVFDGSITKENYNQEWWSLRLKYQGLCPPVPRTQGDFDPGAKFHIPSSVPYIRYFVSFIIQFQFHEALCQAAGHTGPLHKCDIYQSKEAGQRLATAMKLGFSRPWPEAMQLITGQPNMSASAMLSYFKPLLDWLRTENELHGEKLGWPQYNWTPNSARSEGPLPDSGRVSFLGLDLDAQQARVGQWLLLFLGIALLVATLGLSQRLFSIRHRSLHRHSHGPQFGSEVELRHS
Description: The enzymatic activity of ACE is monitored using the spectrophotometric substrate described by Holmquist et al. [Anal. Biochem. 95, 540-548 (1979)]and the buffer system described by Ryan [Methods of Enzymatic Analysis, 3rd ed., H. U. Bergmeyer, editor; vol. V, Verlag Chemie, Weinheim, 1983, pp. 20-34].
as §1

myointimal proliferation = conditions: after vascular injury; Davis et al. 1992; cited from earlier work

## O=C(O)[C@@H]1CCC[C@@H]2c3ccccc3C[C@H](NC(=O)C3(S)Cc4ccccc4C3)C(=O)N21 [102,708, [4S-[4α, 7α(R*), 12bβ]]-7-[(2-Thio-2-oxoindan)methylamino]-1,2,3,4,6,7,8,12b-octahydro-6-oxopyrido[2,1-a][2]benzazepine-4-carboxylic acid]
Enkephalinase
  Ki: < 0.2 nM
ACE
  Ki: < 45 nM

## CC(C)(S)C(=O)N[C@H]1Cc2ccccc2[C@H]2CCC[C@@H](C(=O)O)N2C1=O [101,069, [4S-[4α, 7α(R*), 12bβ]]-7-[(2-Thio-1-oxo-2-methyl)-2-propylamino]-1,2,3,4,6,7,8,12b-octahydro-6-oxopyrido[2,1-a][2]benzazepine-4-carboxylic acid]
Enkephalinase
  Ki: 4 nM
ACE
  Ki: > 7 nM

## O=C(O)[C@@H]1CCC[C@@H]2c3ccccc3C[C@H](NC(=O)C3(CCS)Cc4ccccc4C3)C(=O)N21 [100,273, [4S-[4α, 7α(R*), 12bβ]]-7-[(2-(2-mercaptoethyl)-2-oxoindan)methylamino]1,2,3,4,6,7,8,12b-octahydro-6-oxopyrido[2,1-a][2]benzazepine-4-carboxylic acid]
Enkephalinase
  Ki: 0.8 nM
ACE
  Ki: > 250 nM

## CCOC(=O)[C@H](CCSC)NC(=O)[C@@H](CSC(C)=O)Cc1ccccc1C [SCH42495]
Myointimal proliferation
  myointimal proliferation: prevent myointimal proliferation after vascular injury

## O=C(O)[C@@H]1CCC[C@@H]2c3ccccc3C[C@H](NC(=O)C3(CS)Cc4ccccc4C3)C(=O)N21 [100,346, [4S-[4α, 7α(R*), 12bβ]]-7-[(2-Mercaptomethyl-2-oxoindan)methylamino]-1,2,3,4,6,7,8,12b-octahydro-6-oxopyrido[2,1-a][2]benzazepine-4-carboxylic acid]
Enkephalinase
  Ki: < 0.2 nM
ACE
  Ki: < 500 nM

## O=C(O)[C@@H]1CCC[C@@H]2c3ccccc3C[C@H](NC(=O)C3(S)CCCC3)C(=O)N21 [102,769, [4S-[4α, 7α(R*), 12bβ]]-7-[(1-Thio-1-oxocyclopentane)methylamino]-1,2,3,4,6,7,8,12b-octahydro-6-oxopyrido[2,1-a][2]benzazepine-4-carboxylic acid]
Enkephalinase
  Ki: < 0.2 nM
ACE
  Ki: < 7 nM
